# Test results: ChEMBL document CHEMBL5236615, “Discovery of Novel N-Heterocyclic-Fused Deoxypodophyllotoxin Analogues as Tubulin Polymerization Inhibitors Targeting the Colchicine-Binding Site for Cancer Treatment” (J Med Chem, 2022)
# Activity calls are given as the source filed them. The rule behind the calls is not given here.
# What was measured:
# HCT-116 = assay: Antiproliferative activity against human HCT-116 cells measured after 72 hrs by MTT assay; assay type: functional, cell-based; details: HCT-116, 72 h
# [1] = Metabolic stability in human liver microsomes assessed as half life at 1 uM by LC/MS analysis; assay type: ADME, Microsome
# [2] = Metabolic stability in human liver microsomes assessed as intrinsic clearance at 1 uM by LC/MS analysis; assay type: ADME, Microsome; details: read-out: CLH
# Tubulin [3] = target: T1, Tubulin (Sus scrofa, UniProt P02554+P02550); assay: Inhibition of porcine brain tubulin assessed as changes in the fluorescence intensity measured for 60 mins by cell free tubulin polymerization assay
# Tubulin (Homo sapiens) [4] = target: T2, Tubulin (Homo sapiens) (UniProt P68371+Q9H4B7+P0DPH7+P68366+Q13509+Q71U36+P04350+Q3ZCM7+P07437+P68363+Q9BQE3+Q6PEY2+Q13885+Q9BVA1+Q9BUF5); assay: Inhibition of [3H]colchicine binding to tubulin (unknown origin) at 1 uM by competition scintillation proximity assay relative to control; assay type: protein-complex assay
# Tubulin (Homo sapiens) [5] = target: T2, Tubulin (Homo sapiens); assay: Inhibition of [3H]colchicine binding to tubulin (unknown origin) at 5 uM by competition scintillation proximity assay relative to control; assay type: protein-complex assay
# Tubulin [6] = target: T1, Tubulin; assay: Binding affinity to porcine brain tubulin assessed as changes in the fluorescence incubated for 10 mins tryptophan-based binding assay
# MCF7 [7] = assay: Induction of cell cycle arrest in human MCF7 cells assessed as accumulation of cells at G2/M phase at 5 nM measured after 24 hrs by flow cytometry relative to control; assay type: functional
# MCF7 [8] = assay: Induction of cell cycle arrest in human MCF7 cells assessed as accumulation of cells at G2/M phase at 10 nM measured after 24 hrs by flow cytometry relative to control; assay type: functional
# MCF7 [9] = assay: Induction of cell cycle arrest in human MCF7 cells assessed as cdc25c activation at 5 to 25 nM incubated for 24 hrs by Western blotting analysis; assay type: functional, cell-based; details: dose 5-25 nM
# MCF7 [10] = assay: Induction of cell cycle arrest in human MCF7 cells assessed as arrest in G2/M phase by measuring accumulation of cyclin B1 at 5 to 25 nM incubated for 24 hrs by Western blotting analysis; assay type: functional, cell-based; details: dose 5-25 nM
# MCF7 [11] = assay: Induction of cell cycle arrest in human MCF7 cells assessed as arrest in G2/M phase by measuring accumulation of CDK7 at 5 to 25 nM incubated for 24 hrs by Western blotting analysis; assay type: functional, cell-based; details: dose 5-25 nM
# MCF7 [12] = assay: Induction of cell cycle arrest in human MCF7 cells assessed as arrest in G2/M phase by measuring accumulation of p21 at 5 to 25 nM incubated for 24 hrs by Western blotting analysis; assay type: functional, cell-based; details: dose 5-25 nM
# MCF7 [13] = assay: Induction of cell cycle arrest in human MCF7 cells assessed as mitosis by measuring accumulation of histone H3 ser10 phosphorylation incubated for 24 hrs by immunofluorescence assay; assay type: functional, cell-based; details: dose 5-25 nM
# MCF7 [14] = assay: Induction of apoptosis in human MCF7 cells incubated for 24 hrs by annexinV/PI assay; assay type: functional, cell-based; details: dose 5-25 nM
# MCF7 [15] = assay: Induction of apoptosis in human MCF7 cells assessed as upregulation of BaX protein expression at 5 to 20 nM measured after 24 hrs by Western blot analysis; assay type: functional, cell-based; details: dose 5-20 nM
# MCF7 [16] = assay: Induction of apoptosis in human MCF7 cells assessed as upregulation of p-Bim EL protein expression at 5 to 20 nM measured after 24 hrs by Western blot analysis; assay type: functional, cell-based; details: dose 5-20 nM
# MCF7 [17] = assay: Induction of apoptosis in human MCF7 cells assessed as upregulation of cleaved Caspase 9 at 5 to 20 nM measured after 24 hrs by Western blot analysis; assay type: functional, cell-based; details: dose 5-20 nM
# MCF7 [18] = assay: Induction of cell cycle arrest in human MCF7 cells assessed as upregulation of Bcl2 phosphorylation at […] at 5 to 20 nM measured after 24 hrs by Western blot analysis; assay type: functional, cell-based; details: dose 5-20 nM
# MCF7 [19] = assay: Induction of mitochondria transmembrane potential loss in human MCF7 cells measured after 12 hrs by JC1 dye based assay; assay type: functional; details: dose 5-20 nM
# MCF7 [20] = assay: Induction of ROS generation in human MCF7 cells assessed as increase in intracellular ROS level measured after 12 hrs by DCFH-DA staining based assay; assay type: functional, cell-based; details: dose 5-20 nM
# A549 = assay: Antimigratory activity against human A549 cells assessed as inhibition of cell migration measured after 24 hrs by crystal violet staining based transwell migration assay; assay type: functional; details: dose 1.25-5 nM
# [21] = Antiproliferative activity against paclitaxel-resistant human MCF7/TxR cells measured after 72 hrs by MTT assay; assay type: functional, cell-based
# [22] = Antiproliferative activity against paclitaxel-resistant human A549/TxR cells measured after 72 hrs by MTT assay; assay type: functional, cell-based
# A549/TxR = assay: Induction of apoptosis in paclitaxel-resistant human A549/TxR cells incubated for 24 hrs by annexinV/PI assay; assay type: functional, cell-based; details: dose 5-20 nM
# [23] = target: ATP-dependent translocase ABCB1 (Homo sapiens, UniProt P08183); assay: Substrate activity at P-glycoprotein in paclitaxel-resistant human MCF/TxR cells assessed as intracellular Rhodamine-123 content at 10 uM incubated for 12 hrs by confocal microscopy; assay type: cell-based; details: mcf7/txr
# MCF7 [24] = assay: Antitumor activity against human MCF7 cells xenografted in Balb/c mouse assessed as tumor growth inhibition at 10 mg/kg, ip administered for every 2 days for 21 days; assay type: functional; details: MCF7, 504 h, time 21 day, read-out: TGI
# MCF7 [25] = assay: Antitumor activity against human MCF7 cells xenografted in Balb/c mouse assessed as tumor growth inhibition at 20 mg/kg, ip administered for every 2 days for 21 days; assay type: functional; details: MCF7, 504 h, time 21 day, read-out: TGI
# [26] = Toxicity in Balb/c mouse xenografted with human MCF7 cells assessed as body weight loss at 5 to 20 mg/kg, ip administered for every 2 days for 21 days; assay type: organism-based; details: in vivo, 48 h, dose 5-20 mg/kg, time 2 day
# [27] = Toxicity in Balb/c mouse xenografted with human MCF7 cells assessed as pathological changes in heart at 5 to 20 mg/kg, ip administered for every 2 days for 21 days by hematoxylin and eosin staining based analysis; assay type: organism-based; details: in vivo, 504 h, dose 5-20 mg/kg, time 21 day
# [28] = Toxicity in Balb/c mouse xenografted with human MCF7 cells assessed as pathological changes in liver at 5 to 20 mg/kg, ip administered for every 2 days for 21 days by hematoxylin and eosin staining based analysis; assay type: organism-based; details: in vivo, 504 h, dose 5-20 mg/kg, time 21 day
# [29] = Toxicity in Balb/c mouse xenografted with human MCF7 cells assessed as pathological changes in spleen at 5 to 20 mg/kg, ip administered for every 2 days for 21 days by hematoxylin and eosin staining based analysis; assay type: organism-based; details: in vivo, 504 h, dose 5-20 mg/kg, time 21 day
# [30] = Toxicity in Balb/c mouse xenografted with human MCF7 cells assessed as pathological changes in lung at 5 to 20 mg/kg, ip administered for every 2 days for 21 days by hematoxylin and eosin staining based analysis; assay type: organism-based; details: in vivo, 504 h, dose 5-20 mg/kg, time 21 day
# [31] = Toxicity in Balb/c mouse xenografted with human MCF7 cells assessed as pathological changes in kidney at 5 to 20 mg/kg, ip administered for every 2 days for 21 days by hematoxylin and eosin staining based analysis; assay type: organism-based; details: in vivo, 504 h, dose 5-20 mg/kg, time 21 day
# MCF7 [32] = assay: Antitumor activity against human MCF7 cells xenografted in Balb/c mouse assessed as decrease in Ki67-positive tumor cells in tumor at 20 mg/kg, ip administered for every 2 days for 21 days; assay type: functional, organism-based; details: time 2.0 day
# MCF7 [33] = assay: Antitumor activity against human MCF7 cells xenografted in Balb/c mouse assessed as decrease in CD31-positive tumor cells in tumor at 20 mg/kg, ip administered for every 2 days for 21 days; assay type: functional, organism-based; details: time 2.0 day
# [34] = Acute toxicity in ICR mouse; details: in vivo
# ATP-dependent translocase ABCB1, sequence (P08183 whole entry): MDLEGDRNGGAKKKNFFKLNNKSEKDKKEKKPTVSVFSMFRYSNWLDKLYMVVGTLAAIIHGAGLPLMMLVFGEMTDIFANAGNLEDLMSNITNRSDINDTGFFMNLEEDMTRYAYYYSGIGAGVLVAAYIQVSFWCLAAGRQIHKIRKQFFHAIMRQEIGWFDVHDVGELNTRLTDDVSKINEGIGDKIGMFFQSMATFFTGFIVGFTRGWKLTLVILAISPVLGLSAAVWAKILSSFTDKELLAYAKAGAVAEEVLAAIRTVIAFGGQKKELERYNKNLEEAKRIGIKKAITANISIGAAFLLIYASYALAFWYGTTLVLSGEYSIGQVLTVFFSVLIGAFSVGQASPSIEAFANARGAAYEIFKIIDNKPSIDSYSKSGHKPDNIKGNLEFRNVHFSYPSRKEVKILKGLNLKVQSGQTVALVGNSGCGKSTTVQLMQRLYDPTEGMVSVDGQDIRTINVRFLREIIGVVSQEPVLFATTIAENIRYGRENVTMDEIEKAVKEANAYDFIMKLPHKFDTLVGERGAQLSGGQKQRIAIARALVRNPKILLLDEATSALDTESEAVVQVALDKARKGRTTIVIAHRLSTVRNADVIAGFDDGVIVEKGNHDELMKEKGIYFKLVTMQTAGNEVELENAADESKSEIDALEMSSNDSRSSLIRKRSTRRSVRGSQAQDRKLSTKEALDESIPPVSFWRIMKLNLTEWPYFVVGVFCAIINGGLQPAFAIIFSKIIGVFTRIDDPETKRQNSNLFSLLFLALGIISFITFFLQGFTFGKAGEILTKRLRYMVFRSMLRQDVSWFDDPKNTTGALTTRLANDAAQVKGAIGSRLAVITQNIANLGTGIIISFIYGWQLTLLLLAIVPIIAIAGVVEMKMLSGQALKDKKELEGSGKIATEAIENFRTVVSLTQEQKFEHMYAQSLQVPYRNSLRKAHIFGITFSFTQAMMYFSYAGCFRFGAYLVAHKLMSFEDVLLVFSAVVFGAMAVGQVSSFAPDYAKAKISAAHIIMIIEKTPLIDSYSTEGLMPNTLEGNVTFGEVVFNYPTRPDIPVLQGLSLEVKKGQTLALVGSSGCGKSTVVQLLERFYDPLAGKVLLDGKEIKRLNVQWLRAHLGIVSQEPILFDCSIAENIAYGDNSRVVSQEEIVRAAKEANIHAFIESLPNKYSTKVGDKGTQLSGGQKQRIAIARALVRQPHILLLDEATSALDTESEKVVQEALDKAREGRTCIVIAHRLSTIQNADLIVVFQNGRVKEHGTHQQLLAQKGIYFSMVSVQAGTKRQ
SMILES,IC50 (HCT-116) [nM],half-life at 1 µM [1] [min],CLint scaled at 1 µM [2] [mL/min/kg],IC50 (Tubulin [3]) [µM],inhibition (Tubulin (Homo sapiens) [4]) [%],inhibition (Tubulin (Homo sapiens) [5]) [%],Kd (Tubulin [6]) [µM],Activity (MCF7 [7]) [%],Activity (MCF7 [8]) [%],Activity (MCF7 [9]),Activity (MCF7 [10]),Activity (MCF7 [11]),Activity (MCF7 [12]),Activity (MCF7 [13]),Activity (MCF7 [14]),Activity (MCF7 [15]),Activity (MCF7 [16]),Activity (MCF7 [17]),Activity (MCF7 [18]),Activity (MCF7 [19]),other results
COc1c(Cl)cc([C@@H]2c3cc4c(cc3C[C@H]3C(=O)NC(=O)N23)OCCO4)cc1Cl,8.7,26.1,66.7,2.52,71.5,88.7,4.49,16,16,Active,Active,Active,Active,Dose-Dependent Effect,Dose-Dependent Effect,Active,Active,Active,Active,Dose-Dependent Effect,Activity (MCF7 [20]): Dose-Dependent Effect; Activity (A549): Dose-Dependent Effect; IC50 [21]: 7.8 nM; IC50 [22]: 5.2 nM; inhibition (A549/TxR): Dose-Dependent Effect; Activity [23]: Not Active; inhibition in vivo at 10 mg/kg (MCF7 [24]): 85.1%; inhibition in vivo at 20 mg/kg (MCF7 [25]): 85.1%; Activity [26]: Non-Toxic; Activity [27]: Non-Toxic; Activity [28]: Non-Toxic; Activity [29]: Non-Toxic; Activity [30]: Non-Toxic; Activity [31]: Non-Toxic; Activity (MCF7 [32]): Active; Activity (MCF7 [33]): Active; LD50 [34]: 211 mg/kg
COc1c(Br)cc([C@@H]2c3cc4c(cc3C[C@H]3C(=O)NC(=O)N23)OCCO4)cc1Br,5.9,10.4,167,2.31,69.7,84.6,1.7,16,16,Active,Active,Active,Active,Dose-Dependent Effect,Dose-Dependent Effect,Active,Active,Active,Active,Dose-Dependent Effect,Activity (MCF7 [20]): Dose-Dependent Effect; Activity (A549): Dose-Dependent Effect; IC50 [21]: 5.2 nM; IC50 [22]: 7.9 nM; inhibition (A549/TxR): Dose-Dependent Effect; Activity [23]: Not Active; inhibition in vivo at 10 mg/kg (MCF7 [24]): 73.2%; inhibition in vivo at 20 mg/kg (MCF7 [25]): 78.9%; Activity [26]: Non-Toxic; Activity [27]: Non-Toxic; Activity [28]: Non-Toxic; Activity [29]: Non-Toxic; Activity [30]: Non-Toxic; Activity [31]: Non-Toxic; Activity (MCF7 [32]): Active; Activity (MCF7 [33]): Active; LD50 [34]: 86.2 mg/kg
